US8962623B2, “Aminopyrazine compounds” (Locus Pharmaceuticals, Inc., priority 2011, dated 2015)

Tests used:
Itk = molecular target: T1, Itk (Homo sapiens, UniProt Q08881); assay: Itk in vitro inhibitory activity in radioassay (33P incorporation into Phospholipase C-γ-1); assay type: biochemical; details: 20 μM ATP solution, read-out: IC50 over Itk
T1 construct: purchased Invitrogen
T1 sequence (Q08881 1-620): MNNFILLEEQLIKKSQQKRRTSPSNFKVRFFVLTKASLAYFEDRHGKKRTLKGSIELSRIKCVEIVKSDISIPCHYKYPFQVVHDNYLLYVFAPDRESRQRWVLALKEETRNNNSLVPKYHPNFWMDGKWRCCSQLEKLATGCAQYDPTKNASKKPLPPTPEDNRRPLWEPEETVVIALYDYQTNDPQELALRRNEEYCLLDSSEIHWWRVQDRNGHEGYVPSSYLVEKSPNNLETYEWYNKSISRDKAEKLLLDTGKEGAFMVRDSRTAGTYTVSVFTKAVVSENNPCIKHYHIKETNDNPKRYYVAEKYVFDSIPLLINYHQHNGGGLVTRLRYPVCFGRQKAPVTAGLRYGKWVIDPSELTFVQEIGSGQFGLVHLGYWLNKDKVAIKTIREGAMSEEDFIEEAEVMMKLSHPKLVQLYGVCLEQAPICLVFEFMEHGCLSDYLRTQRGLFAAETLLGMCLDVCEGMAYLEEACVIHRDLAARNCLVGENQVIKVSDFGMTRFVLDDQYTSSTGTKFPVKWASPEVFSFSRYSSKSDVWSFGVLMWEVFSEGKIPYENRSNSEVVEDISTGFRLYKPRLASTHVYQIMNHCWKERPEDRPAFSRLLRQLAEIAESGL
Experimental: The Itk protein kinase activity (Invitrogen) was determined by measuring the incorporation of ^33P from γ-[^33P] ATP into the Phospholipase C-γ-1 substrate (Calbiochem). The dilution series of the compound of the present invention were dissolved in DMSO. The diluted solution (1 μl) of the compounds of the present invention in DMSO was added to a 96-well assay plate. Additionally, Itk kinase solution (39 μL) composed of 3.2 nM Itk (Invitrogen) in reaction buffer (12.5 mM Tris (pH 7.5), 0.01% Triton X-100, 5% glycerol, 10 mM MgCl2, 1 mM EGTA, 5 mM glycerol 2-phosphate, 2 mM DTT and 0.5 mM sodium orthovanadate) was added to the assay plates. The solution was pre-incubated for 20 minutes at 30° C. with shaking. Then ATP/substrate solution (10 μl) composed of […] Phospholipase C-γ-1 (Calbiochem), 1.5% v/v γ-^33P-ATP (PerkinElmer), 20 μM ATP and reaction buffer was added. After incubating at 30° C. with shaking for 70 minutes, the reaction was stopped by adding 10 μl of 0.6 M phosphoric acid to each well. The each reaction from the assay plate was transferred and captured on a phosphocellulose 96-well plate (Millipore MAPHNOB). The reaction mixture was analyzed on the PerkinElmer TopCount NXT HTS 96-well Liquid Scintillation counter.
Inhibition rate (%) of the compound was calculated with the following formula: Inhibition rate(%)={1−(Bx−B100)/(B0−B100)}×100
BX: average counts for the compound
B100: average counts for 100% inhibition control (i.e., no enzyme, no compound)
B0: average counts for 0% inhibition control (i.e., no compound)
The value of 50% inhibition rate (IC50) for the compound was defined as the concentration of the test compound that caused a 50% decrease in the maximum inhibition. IC50 values were calculated from replicate curves by non-linear regression using the sigmoidal dose-response equation in GraphPad Prism software.

Lck = Lck (Homo sapiens, UniProt P06239); assay: Inhibitory activity to Lck (similar procedure); assay type: biochemical; details: selectivity ratio
Sequence of Lck (P06239 whole entry, species assumed): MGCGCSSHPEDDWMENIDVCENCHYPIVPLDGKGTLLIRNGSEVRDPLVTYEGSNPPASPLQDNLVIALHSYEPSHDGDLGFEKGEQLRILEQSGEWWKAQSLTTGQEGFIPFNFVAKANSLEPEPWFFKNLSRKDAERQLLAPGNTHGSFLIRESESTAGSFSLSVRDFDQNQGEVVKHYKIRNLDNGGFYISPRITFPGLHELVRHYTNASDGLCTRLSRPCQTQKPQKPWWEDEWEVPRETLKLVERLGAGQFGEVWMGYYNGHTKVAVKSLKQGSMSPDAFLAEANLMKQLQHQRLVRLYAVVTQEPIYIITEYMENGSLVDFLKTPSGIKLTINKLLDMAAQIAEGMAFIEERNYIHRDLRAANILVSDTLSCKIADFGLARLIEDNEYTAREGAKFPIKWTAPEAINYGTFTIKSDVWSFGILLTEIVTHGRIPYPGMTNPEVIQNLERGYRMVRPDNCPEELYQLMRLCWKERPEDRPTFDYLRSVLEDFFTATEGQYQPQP
Experimental: Study of inhibitory activity to Lck was performed in similar procedure above described.
(§1) Study of inhibitory activity to other various kinases (e.g. Lck, InsR, Btk) was performed in similar procedure above described.

InsR = InsR (Homo sapiens, UniProt P06213); assay: Inhibitory activity to InsR (similar procedure); assay type: biochemical; details: selectivity ratio
Sequence of InsR (P06213 28-1382, species assumed): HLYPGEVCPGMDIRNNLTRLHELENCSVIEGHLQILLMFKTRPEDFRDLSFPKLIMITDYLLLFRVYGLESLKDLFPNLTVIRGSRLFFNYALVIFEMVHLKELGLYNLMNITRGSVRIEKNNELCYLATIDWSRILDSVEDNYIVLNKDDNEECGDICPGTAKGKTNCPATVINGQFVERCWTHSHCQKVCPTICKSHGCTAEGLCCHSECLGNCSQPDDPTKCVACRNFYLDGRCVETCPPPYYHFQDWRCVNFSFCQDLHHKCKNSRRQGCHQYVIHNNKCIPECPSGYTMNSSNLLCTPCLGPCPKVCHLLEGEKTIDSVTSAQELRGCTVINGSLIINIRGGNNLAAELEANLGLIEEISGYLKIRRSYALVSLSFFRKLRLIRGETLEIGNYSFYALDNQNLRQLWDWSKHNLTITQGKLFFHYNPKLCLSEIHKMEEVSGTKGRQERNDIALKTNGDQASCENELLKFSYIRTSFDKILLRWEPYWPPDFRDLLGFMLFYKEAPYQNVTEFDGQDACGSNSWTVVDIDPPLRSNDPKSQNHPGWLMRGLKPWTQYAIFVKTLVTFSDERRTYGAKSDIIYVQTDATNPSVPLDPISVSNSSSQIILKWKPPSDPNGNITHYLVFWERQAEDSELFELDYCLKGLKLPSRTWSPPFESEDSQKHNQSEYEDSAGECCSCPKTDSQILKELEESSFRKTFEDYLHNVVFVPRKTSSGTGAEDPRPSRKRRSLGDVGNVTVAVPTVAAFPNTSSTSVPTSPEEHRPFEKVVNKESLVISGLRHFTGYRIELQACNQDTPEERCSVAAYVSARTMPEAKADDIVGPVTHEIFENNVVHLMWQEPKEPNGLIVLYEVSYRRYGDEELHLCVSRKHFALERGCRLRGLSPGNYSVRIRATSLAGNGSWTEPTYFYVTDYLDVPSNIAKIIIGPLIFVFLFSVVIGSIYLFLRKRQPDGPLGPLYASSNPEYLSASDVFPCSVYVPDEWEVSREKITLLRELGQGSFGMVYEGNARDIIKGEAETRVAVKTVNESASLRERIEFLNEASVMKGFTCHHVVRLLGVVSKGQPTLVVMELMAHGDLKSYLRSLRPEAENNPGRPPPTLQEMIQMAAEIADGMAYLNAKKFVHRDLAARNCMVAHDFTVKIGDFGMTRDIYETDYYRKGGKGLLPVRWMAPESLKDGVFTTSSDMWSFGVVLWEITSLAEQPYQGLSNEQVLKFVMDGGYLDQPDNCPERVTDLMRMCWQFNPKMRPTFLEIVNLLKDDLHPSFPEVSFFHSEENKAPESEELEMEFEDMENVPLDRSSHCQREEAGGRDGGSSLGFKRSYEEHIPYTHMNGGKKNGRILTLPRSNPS
Experimental: as §1

Btk = Btk (Homo sapiens, UniProt Q06187); assay: Inhibitory activity to Btk (similar procedure); assay type: biochemical; details: selectivity ratio
Sequence of Btk (Q06187 whole entry, species assumed): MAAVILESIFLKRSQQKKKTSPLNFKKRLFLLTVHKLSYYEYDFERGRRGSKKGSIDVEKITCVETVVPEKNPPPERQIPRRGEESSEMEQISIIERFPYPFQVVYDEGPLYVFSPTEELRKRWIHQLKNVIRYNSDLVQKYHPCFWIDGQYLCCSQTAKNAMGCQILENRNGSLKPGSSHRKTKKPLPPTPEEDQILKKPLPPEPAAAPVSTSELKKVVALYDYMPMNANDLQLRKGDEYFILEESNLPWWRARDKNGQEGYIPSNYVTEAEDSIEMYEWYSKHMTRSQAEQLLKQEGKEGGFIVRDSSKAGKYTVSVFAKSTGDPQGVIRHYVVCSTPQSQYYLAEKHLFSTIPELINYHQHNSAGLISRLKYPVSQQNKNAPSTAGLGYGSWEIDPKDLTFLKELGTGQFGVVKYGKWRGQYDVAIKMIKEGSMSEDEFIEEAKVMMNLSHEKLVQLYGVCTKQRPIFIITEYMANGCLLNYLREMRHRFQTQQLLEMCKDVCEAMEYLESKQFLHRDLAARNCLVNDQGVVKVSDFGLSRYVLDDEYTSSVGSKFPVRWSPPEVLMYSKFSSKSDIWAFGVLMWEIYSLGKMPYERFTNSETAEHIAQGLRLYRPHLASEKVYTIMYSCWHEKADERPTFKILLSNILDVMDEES
Experimental: as §1

[1] = tested on: IL-2 production in mouse whole blood; assay: Mouse whole blood IL-2 assay; assay type: cell-based, BALB/c mouse; details: anti-CD3/anti-CD28 stimulation, 18 hours, IL-2 by ELISA
Experimental: The dilution series of the compound of the present invention in DMSO were further diluted by addition of RPMI1640 medium (Invitrogen). The diluted compound solution (6.5 μl) was added to a 96-well plate. BALB/c mouse heparinized peripheral blood was diluted 1:2 in RPMI1640, and added 123.5 μl of the diluted blood to the compound plate. The blood samples were pre-incubated at 37° C. for 30 minutes. Anti-CD3 and anti-CD28 antibody mixture (6 μl; 20 μg/mL each) was spotted into a 96 well assay plates. Pre-treated blood samples (114 μl) were added to each well and the plate was incubated for 18 hours at 37° C. in 5% CO2. After the incubation, supernatants were collected by centrifugation at 300×g for 10 min. IL-2 concentration was determined by ELISA method. The inhibition rate (%) of the compound was calculated with the following formula: Inhibition rate(%)={1−(Cx−C100)/(C0−C100)}×100
CX: IL-2 concentration for the compound
C100: IL-2 concentration for 100% inhibition control (i.e., no stimulation, no compound)
C0: IL-2 concentration for 0% inhibition control (i.e., no compound)
The value of 50% inhibition rate (IC50) for the compound was determined from inhibition curve based on inhibition rate at each concentration of the compound of the present invention.

SMILES	IC50 (Itk)	Lck[IC50]/Itk[IC50] (Lck)	InsR[IC50]/Itk[IC50] (InsR)	Btk[IC50]/Itk[IC50] (Btk)	IC50 [1]
COC1CCN(c2cccc(-c3cnc(N)c(-c4ccc(NC(=O)c5c(C)n(C)n(-c6cccc(C)c6)c5=O)cc4)n3)n2)CC1 [Example 17(11), N-(4-{3-amino-6-[6-(4-methoxy-1-piperidinyl)-2-pyridinyl]-2-pyrazinyl}phenyl)-1,5-dimethyl-2-(3-methylphenyl)-3-oxo-2,3-dihydro-1H-pyrazole-4-carboxamide]	1 nM	>300	>300	>1000	–
COC1CN(c2cccc(-c3cnc(N)c(-c4ccc(NC(=O)c5c(C)n(C)n(-c6cccc(Cl)c6)c5=O)cc4)n3)n2)C1 [Example 14(12), N-(4-{3-amino-6-[6-(3-methoxy-1-azetidinyl)-2-pyridinyl]-2-pyrazinyl}phenyl)-2-(3-chlorophenyl)-1,5-dimethyl-3-oxo-2,3-dihydro-1H-pyrazole-4-carboxamide]	2 nM	185	1400	>500	–
COc1cccc(-n2c(=O)c(C(=O)Nc3ccc(-c4nc(-c5ccnc(N6CC(OC)C6)c5)cnc4N)nc3)c(C)n2C)c1 [Example 29(33), N-(6-{3-amino-6-[2-(3-methoxy-1-azetidinyl)-4-pyridinyl]-2-pyrazinyl}-3-pyridinyl)-2-(3-methoxyphenyl)-1,5-dimethyl-3-oxo-2,3-dihydro-1H-pyrazole-4-carboxamide]	4 nM	–	–	–	–

More lines, now with the values ahead:

IC50 (Itk)	Lck[IC50]/Itk[IC50] (Lck)	InsR[IC50]/Itk[IC50] (InsR)	Btk[IC50]/Itk[IC50] (Btk)	IC50 [1]	SMILES
2 nM	85	100	>200	–	Cc1c(C(=O)Nc2ccc(-c3nc(-c4cccc(N5CCOCC5)n4)cnc3N)cc2)c(=O)n(-c2ccccc2)n1C [Example 7(6), N-(4-{3-amino-6-[6-(4-morpholinyl)-2-pyridinyl]-2-pyrazinyl}phenyl)-1,5-dimethyl-3-oxo-2-phenyl-2,3-dihydro-1H-pyrazole-4-carboxamide]
1 nM	>360	>1000	>1000	350 nM	Cc1c(C(=O)Nc2ccc(-c3nc(-c4ccnc(N5CCOCC5)c4)cnc3N)nc2)c(=O)n(-c2cccc(Cl)c2)n1C [Example 29(2), N-(6-{3-amino-6-[2-(4-morpholinyl)-4-pyridinyl]-2-pyrazinyl}-3-pyridinyl)-2-(3-chlorophenyl)-1,5-dimethyl-3-oxo-2,3-dihydro-1H-pyrazole-4-carboxamide]
